Experimental data taken from US10870647B2, “Imidazopyridine derivative, method for preparing same, and pharmaceutical composition containing same as active ingredient for preventing or treating cancer” (DAEGU-GYEONGBUK MEDICAL INNOVATION FOUNDATION, priority 2016, dated 2020).

Legend:
Assay in all cases: Kinase selectivity, scanMAX Kinase assay panel (DiscoverX), % control at 1 uM
Assay type in all cases: binding
[1] = target: T1, scanMAX Kinase assay panel (Homo sapiens, UniProt P42336); details: PIK3CA; 1 uM; read-out: Percent Control (%)
T1 construct: purchased DiscoverX
Method in brief: (§1)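 Compounds were tested at 1 uM in DMSO against each enzyme in the panel. Percent control was calculated as (compound − positive control)/(negative control − positive control) × 100, and a compound was scored active on a kinase when this value fell below 35.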

[2] = target: T2, scanMAX Kinase assay panel (Homo sapiens, UniProt Q96BR1); details: SGK3; 1 uM; read-out: Percent Control (%)
T2 construct: purchased DiscoverX
T2 sequence (Q96BR1 1-496): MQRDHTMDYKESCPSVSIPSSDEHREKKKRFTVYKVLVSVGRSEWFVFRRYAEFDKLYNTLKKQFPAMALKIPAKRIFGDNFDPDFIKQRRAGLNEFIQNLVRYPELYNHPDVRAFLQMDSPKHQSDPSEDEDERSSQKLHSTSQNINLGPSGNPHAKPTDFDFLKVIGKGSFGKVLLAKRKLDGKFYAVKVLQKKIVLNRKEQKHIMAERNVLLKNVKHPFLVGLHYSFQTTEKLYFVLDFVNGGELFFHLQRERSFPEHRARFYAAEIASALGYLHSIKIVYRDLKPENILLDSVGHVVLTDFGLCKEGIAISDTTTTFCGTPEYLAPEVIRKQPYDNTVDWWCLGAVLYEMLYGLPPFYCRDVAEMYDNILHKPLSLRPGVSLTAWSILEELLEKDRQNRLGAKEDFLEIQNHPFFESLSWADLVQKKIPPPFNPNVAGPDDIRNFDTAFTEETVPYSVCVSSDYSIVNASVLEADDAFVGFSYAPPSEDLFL
Method in brief: as §1

[3] = target: T3, scanMAX Kinase assay panel (Homo sapiens, UniProt O15264); details: p38-delta; 1 uM; read-out: Percent Control (%)
T3 construct: purchased DiscoverX
T3 sequence (O15264 1-365): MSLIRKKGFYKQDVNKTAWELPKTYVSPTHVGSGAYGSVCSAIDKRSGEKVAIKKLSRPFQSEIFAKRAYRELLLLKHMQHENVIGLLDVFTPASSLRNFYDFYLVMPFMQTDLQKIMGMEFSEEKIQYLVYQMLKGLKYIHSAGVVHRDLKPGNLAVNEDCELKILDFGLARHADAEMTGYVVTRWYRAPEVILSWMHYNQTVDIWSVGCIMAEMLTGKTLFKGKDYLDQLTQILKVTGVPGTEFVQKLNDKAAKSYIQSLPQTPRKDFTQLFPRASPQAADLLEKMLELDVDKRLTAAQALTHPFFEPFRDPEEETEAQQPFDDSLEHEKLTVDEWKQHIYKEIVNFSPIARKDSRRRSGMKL
Method in brief: as §1

[4] = target: T4, scanMAX Kinase assay panel (Homo sapiens, UniProt Q13705); details: ACVR2B; 1 uM; read-out: Percent Control (%)
T4 construct: purchased DiscoverX
Method in brief: as §1

[5] = target: T5, scanMAX Kinase assay panel (Homo sapiens, UniProt Q8TD19); details: NEK9; 1 uM; read-out: Percent Control (%)
T5 construct: purchased DiscoverX
T5 sequence (Q8TD19 1-979): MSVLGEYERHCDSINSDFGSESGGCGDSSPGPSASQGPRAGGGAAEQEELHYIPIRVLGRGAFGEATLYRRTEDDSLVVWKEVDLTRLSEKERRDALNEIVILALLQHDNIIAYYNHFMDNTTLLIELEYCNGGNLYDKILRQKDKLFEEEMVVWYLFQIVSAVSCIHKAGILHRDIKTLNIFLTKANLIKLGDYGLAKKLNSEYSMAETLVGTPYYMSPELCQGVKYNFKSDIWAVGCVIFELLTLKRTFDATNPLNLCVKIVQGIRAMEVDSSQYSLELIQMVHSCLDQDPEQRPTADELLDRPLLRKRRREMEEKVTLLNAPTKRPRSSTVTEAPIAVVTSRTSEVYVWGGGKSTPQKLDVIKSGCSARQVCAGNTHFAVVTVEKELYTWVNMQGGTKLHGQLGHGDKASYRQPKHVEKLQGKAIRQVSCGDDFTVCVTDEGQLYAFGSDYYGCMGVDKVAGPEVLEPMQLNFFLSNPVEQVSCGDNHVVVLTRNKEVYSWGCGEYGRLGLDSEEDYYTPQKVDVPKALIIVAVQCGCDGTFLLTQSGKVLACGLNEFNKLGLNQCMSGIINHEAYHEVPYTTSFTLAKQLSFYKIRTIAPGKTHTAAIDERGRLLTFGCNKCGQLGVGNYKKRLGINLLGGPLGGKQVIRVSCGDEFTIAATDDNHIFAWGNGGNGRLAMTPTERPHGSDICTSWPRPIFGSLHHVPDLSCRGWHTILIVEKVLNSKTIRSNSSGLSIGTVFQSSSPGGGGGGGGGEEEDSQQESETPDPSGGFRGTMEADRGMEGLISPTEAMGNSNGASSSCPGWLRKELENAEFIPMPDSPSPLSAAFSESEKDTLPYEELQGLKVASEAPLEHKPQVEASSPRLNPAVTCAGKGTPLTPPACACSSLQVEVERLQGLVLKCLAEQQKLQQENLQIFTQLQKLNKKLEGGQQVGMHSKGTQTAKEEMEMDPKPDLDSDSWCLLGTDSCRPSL
Method in brief: as §1

[6] = target: T6, scanMAX Kinase assay panel (Homo sapiens, UniProt Q9P1W9); details: PIM2; 1 uM; read-out: Percent Control (%)
T6 construct: purchased DiscoverX
Method in brief: as §1

[7] = target: T7, scanMAX Kinase assay panel (Homo sapiens, UniProt Q8IU85); details: CAMK1D; 1 uM; read-out: Percent Control (%)
T7 construct: purchased DiscoverX
Method in brief: as §1

[8] = target: T8, scanMAX Kinase assay panel (Homo sapiens, UniProt Q9BQI3); details: EIF2AK1; 1 uM; read-out: Percent Control (%)
T8 construct: purchased DiscoverX
Method in brief: as §1

[9] = target: T9, scanMAX Kinase assay panel (Homo sapiens, UniProt P68400); details: CSNK2A1; 1 uM; read-out: Percent Control (%)
T9 construct: purchased DiscoverX
Method in brief: as §1

[10] = target: T10, scanMAX Kinase assay panel (Homo sapiens, UniProt P08581); details: MET; 1 uM; read-out: Percent Control (%)
T10 construct: purchased DiscoverX
Method in brief: as §1

[11] = target: T11, scanMAX Kinase assay panel (Homo sapiens, UniProt P54646); details: AMPK-alpha2; 1 uM; read-out: Percent Control (%)
T11 construct: purchased DiscoverX
Method in brief: as §1

T8 sequence (Q9BQI3 whole entry): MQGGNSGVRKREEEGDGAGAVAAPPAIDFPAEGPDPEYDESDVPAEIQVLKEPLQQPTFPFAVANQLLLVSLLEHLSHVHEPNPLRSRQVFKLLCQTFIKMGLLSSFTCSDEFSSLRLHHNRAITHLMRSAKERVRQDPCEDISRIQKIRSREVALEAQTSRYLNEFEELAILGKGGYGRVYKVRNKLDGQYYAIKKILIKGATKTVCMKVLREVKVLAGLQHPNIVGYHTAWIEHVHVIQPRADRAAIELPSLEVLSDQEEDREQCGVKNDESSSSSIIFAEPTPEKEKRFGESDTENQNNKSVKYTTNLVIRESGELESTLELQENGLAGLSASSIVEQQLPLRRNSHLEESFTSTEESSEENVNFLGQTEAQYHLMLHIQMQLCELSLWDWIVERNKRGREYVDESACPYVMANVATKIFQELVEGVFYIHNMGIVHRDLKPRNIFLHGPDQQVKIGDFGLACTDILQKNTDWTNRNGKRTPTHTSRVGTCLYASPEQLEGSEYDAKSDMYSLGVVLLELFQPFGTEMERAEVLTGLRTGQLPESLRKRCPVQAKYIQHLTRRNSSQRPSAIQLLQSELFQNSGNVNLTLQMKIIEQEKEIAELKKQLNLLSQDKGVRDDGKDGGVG
T7 sequence (Q8IU85 whole entry): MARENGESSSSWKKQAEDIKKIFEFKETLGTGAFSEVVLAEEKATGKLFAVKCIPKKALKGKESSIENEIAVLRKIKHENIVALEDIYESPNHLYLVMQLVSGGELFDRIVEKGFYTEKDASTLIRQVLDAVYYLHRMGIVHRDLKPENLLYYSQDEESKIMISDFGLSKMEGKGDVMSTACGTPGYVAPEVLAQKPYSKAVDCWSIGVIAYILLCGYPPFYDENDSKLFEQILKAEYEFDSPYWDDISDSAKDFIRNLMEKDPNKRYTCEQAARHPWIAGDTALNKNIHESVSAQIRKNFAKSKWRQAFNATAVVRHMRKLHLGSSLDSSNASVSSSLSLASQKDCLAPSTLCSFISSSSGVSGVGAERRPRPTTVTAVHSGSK
T9 sequence (P68400 whole entry): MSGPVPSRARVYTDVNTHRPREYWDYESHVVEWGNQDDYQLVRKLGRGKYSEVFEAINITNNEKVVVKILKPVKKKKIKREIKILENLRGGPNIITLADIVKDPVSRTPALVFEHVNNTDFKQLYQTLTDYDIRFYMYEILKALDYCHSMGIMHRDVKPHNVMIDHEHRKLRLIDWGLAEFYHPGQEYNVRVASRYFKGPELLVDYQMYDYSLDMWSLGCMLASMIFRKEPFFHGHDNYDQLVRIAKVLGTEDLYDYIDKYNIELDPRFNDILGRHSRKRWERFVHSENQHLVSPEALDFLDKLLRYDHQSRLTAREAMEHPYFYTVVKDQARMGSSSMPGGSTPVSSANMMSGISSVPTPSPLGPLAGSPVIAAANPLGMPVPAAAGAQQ
T4 sequence (Q13705 19-512): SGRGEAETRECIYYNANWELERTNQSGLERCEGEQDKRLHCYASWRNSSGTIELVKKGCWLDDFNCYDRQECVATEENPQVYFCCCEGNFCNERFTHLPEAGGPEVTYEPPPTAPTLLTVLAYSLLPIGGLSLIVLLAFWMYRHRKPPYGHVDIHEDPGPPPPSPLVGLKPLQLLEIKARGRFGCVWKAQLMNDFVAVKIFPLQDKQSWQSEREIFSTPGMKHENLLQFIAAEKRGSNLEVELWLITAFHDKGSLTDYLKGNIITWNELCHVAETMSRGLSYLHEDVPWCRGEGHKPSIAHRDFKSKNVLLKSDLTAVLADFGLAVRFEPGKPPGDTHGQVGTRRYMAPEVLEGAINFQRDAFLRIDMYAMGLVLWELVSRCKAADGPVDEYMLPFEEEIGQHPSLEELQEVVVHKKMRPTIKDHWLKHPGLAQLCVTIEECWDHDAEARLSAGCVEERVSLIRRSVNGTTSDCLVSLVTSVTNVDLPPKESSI
T10 sequence (P08581 25-1390): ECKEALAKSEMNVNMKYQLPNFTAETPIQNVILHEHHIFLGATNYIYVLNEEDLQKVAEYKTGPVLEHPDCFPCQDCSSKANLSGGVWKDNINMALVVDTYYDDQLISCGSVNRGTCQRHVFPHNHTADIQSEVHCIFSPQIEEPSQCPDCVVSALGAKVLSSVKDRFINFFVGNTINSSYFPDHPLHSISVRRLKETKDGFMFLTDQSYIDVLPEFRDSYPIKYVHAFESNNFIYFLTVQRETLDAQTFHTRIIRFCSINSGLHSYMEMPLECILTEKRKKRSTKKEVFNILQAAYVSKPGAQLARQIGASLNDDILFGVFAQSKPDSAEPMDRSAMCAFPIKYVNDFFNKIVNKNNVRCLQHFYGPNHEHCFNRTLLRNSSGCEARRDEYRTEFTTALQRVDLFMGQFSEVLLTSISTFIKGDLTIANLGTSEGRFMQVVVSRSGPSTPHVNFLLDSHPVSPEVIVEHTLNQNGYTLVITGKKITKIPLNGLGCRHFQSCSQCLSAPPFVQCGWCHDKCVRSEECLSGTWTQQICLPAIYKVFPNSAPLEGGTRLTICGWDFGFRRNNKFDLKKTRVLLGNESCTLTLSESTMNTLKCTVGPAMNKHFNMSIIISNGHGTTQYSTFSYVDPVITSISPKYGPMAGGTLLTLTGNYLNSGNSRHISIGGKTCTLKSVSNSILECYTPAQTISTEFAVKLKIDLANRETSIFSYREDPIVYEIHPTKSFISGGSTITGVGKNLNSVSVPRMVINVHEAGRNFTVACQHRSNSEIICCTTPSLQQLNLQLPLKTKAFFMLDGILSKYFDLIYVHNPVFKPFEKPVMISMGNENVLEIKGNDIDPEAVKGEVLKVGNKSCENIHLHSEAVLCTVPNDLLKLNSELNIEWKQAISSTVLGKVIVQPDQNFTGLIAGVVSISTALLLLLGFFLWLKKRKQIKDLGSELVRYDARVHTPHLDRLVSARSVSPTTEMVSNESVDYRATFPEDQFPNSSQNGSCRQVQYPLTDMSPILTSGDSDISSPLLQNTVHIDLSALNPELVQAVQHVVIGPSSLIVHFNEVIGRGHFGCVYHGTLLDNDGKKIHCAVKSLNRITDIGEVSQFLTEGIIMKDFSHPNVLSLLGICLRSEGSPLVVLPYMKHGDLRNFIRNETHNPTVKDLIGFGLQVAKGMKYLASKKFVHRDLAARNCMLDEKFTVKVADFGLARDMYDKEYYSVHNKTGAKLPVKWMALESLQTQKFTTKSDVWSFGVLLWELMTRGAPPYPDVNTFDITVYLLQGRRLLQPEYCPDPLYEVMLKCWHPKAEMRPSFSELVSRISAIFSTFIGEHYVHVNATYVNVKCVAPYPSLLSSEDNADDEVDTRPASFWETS
T11 sequence (P54646 whole entry): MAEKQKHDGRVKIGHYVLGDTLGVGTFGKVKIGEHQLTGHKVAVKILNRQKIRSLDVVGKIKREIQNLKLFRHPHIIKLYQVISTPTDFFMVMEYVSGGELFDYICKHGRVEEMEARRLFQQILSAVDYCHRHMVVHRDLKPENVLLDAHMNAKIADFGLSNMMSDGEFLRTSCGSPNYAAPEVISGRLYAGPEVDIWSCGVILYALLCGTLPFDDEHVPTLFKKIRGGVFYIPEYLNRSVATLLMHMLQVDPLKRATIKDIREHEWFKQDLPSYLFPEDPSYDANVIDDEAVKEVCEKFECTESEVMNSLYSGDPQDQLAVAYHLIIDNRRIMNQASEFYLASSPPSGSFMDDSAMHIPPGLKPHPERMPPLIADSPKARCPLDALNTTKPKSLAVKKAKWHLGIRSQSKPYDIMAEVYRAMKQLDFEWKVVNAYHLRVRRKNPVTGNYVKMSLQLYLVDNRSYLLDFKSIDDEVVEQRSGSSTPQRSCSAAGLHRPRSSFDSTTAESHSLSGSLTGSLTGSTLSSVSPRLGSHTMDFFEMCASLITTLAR
T1 sequence (P42336 whole entry): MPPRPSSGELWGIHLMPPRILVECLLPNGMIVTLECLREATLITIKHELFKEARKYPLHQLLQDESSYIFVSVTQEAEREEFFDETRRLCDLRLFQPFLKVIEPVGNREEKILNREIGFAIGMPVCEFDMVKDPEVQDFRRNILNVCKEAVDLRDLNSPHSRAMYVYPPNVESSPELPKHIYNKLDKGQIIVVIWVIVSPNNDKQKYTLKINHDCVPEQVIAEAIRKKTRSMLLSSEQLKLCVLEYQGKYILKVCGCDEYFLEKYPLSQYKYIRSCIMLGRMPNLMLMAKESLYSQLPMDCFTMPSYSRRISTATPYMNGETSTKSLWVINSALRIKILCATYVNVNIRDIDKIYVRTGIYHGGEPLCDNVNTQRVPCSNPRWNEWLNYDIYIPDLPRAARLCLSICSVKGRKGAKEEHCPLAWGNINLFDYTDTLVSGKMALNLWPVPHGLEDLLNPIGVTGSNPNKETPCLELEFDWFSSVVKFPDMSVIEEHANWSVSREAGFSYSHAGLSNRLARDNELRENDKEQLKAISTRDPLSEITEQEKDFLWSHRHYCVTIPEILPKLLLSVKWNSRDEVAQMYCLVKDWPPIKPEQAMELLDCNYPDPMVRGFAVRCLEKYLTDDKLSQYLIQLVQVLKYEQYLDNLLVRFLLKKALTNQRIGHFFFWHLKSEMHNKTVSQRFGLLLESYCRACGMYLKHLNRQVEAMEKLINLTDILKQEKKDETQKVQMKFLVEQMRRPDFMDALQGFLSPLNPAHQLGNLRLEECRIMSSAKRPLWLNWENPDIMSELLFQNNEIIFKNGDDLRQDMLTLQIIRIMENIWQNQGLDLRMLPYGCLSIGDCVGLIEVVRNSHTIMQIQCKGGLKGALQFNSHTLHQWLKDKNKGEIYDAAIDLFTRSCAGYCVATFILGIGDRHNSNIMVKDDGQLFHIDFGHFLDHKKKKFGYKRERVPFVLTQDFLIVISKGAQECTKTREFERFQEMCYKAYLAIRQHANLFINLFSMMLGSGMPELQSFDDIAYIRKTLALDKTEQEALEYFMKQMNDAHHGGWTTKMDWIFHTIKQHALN

| SMILES | remaining binding at 1 µM [1] [%] | remaining binding at 1 µM [2] [%] | remaining binding at 1 µM [3] [%] | remaining binding at 1 µM [4] [%] | remaining binding at 1 µM [5] [%] | remaining binding at 1 µM [6] [%] | remaining binding at 1 µM [7] [%] | remaining binding at 1 µM [8] [%] | remaining binding at 1 µM [9] [%] | remaining binding at 1 µM [10] [%] | remaining binding at 1 µM [11] [%] |
| --- | --- | --- | --- | --- | --- | --- | --- | --- | --- | --- | --- |
| Cc1ccc(C(=O)Nc2ccc(CN3CCN(C)CC3)c(C(F)(F)F)c2)cc1C#Cc1cnc2c(Nc3cnn(C)c3)cccn12 [Example 1, 4-methyl-3-((8-((1-methyl-1H-pyrazol-4-yl)amino)imidazo[1,2-a]pyridin-3-yl)ethynyl)-N-(4-((4-methylpiperazin-1-yl)methyl)-3-(trifluoromethyl)phenyl)benzamide] | 99 | 97 | 16 | 93 | 6 | 100 | 65 | 67 | 83 | 18 | 4 |
| Cc1cn(-c2cc(NC(=O)c3ccc(C)c(C#Cc4cnc5c(Nc6cnn(C)c6)cccn45)c3)cc(C(F)(F)F)c2)cn1 [Example 12, 4-methyl-N-(3-(4-methyl-1H-imidazol-1-yl)-5-(trifluoromethyl)phenyl)-3-((8-((1-methyl-1H-pyrazol-4-yl)amino)imidazo[1,2-a]pyridin-3-yl)ethynyl)benzamide] | 100 | 100 | 78 | 96 | 86 | 91 | 82 | 95 | 100 | 47 | 79 |
| Cc1ccc(NC(=O)C2(C(=O)Nc3ccc(F)cc3)CC2)cc1C#Cc1cnc2c(Nc3cnn(C(C)C)c3)cccn12 [Example 78] | 100 | 78 | 100 | 94 | 100 | 100 | 98 | 94 | 100 | 100 | 100 |
